Key:
[1] = biological target: T1, Serine/threonine-protein kinase ICK (Homo sapiens) (UniProt Q9UPZ9); experiment: Inhibition of human recombinant ICK at 500 nM in presence of ATP by radiometric assay relative to control
T1 sequence (whole entry): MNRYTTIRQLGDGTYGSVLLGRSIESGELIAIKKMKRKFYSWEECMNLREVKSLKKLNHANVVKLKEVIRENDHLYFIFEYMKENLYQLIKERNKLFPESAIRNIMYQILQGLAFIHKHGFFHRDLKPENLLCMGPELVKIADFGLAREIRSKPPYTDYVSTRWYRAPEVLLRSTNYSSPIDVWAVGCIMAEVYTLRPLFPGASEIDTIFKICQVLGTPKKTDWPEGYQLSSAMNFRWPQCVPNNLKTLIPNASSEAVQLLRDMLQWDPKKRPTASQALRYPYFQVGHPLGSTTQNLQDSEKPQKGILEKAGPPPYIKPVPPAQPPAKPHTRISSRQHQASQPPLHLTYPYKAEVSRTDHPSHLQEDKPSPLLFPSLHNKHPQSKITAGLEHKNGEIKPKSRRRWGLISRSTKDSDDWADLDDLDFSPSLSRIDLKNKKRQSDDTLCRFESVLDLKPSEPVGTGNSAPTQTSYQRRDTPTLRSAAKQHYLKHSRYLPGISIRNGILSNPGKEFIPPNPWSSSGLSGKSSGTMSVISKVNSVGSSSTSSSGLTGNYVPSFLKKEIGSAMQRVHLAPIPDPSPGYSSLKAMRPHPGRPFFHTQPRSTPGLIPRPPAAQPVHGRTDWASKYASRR

[2] = biological target: T2, Mitogen-activated protein kinase 13 (Homo sapiens) (UniProt O15264); experiment: Inhibition of human recombinant p38delta at 500 nM related to control ULK1
T2 sequence (whole entry): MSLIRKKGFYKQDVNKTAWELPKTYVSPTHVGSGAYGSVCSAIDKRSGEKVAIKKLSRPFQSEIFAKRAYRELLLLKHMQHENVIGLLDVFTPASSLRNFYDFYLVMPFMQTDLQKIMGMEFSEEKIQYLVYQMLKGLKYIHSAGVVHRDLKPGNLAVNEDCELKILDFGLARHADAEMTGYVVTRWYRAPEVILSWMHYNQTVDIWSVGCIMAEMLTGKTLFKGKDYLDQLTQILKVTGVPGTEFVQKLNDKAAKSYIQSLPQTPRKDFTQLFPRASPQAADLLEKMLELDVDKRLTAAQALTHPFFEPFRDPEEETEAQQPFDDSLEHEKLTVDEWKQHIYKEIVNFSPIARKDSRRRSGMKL

[3] = biological target: T3, Dual specificity mitogen-activated protein kinase kinase 6 (Homo sapiens) (UniProt P52564); experiment: Inhibition of human recombinant MAP2K6 at 500 nM in presence of ATP by radiometric assay relative to control
T3 sequence (whole entry): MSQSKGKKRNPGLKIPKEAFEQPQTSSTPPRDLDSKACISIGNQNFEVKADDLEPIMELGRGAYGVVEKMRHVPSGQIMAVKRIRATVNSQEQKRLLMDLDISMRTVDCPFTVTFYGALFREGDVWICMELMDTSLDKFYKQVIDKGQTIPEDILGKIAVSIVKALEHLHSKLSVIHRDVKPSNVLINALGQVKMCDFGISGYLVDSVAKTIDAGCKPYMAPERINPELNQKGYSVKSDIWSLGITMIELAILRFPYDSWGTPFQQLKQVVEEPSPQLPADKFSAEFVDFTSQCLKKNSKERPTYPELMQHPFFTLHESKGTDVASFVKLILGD

[4] = biological target: Rho-associated protein kinase 1 (Homo sapiens) (UniProt Q13464); experiment: Inhibition of human recombinant ROCK1 at 15 nM related to control ULK1
[5] = biological target: T4, Serine/threonine-protein kinase TAO3 (Homo sapiens) (UniProt Q9H2K8); experiment: Inhibition of human recombinant TAO3 at 15 nM related to control ULK1
T4 sequence (whole entry): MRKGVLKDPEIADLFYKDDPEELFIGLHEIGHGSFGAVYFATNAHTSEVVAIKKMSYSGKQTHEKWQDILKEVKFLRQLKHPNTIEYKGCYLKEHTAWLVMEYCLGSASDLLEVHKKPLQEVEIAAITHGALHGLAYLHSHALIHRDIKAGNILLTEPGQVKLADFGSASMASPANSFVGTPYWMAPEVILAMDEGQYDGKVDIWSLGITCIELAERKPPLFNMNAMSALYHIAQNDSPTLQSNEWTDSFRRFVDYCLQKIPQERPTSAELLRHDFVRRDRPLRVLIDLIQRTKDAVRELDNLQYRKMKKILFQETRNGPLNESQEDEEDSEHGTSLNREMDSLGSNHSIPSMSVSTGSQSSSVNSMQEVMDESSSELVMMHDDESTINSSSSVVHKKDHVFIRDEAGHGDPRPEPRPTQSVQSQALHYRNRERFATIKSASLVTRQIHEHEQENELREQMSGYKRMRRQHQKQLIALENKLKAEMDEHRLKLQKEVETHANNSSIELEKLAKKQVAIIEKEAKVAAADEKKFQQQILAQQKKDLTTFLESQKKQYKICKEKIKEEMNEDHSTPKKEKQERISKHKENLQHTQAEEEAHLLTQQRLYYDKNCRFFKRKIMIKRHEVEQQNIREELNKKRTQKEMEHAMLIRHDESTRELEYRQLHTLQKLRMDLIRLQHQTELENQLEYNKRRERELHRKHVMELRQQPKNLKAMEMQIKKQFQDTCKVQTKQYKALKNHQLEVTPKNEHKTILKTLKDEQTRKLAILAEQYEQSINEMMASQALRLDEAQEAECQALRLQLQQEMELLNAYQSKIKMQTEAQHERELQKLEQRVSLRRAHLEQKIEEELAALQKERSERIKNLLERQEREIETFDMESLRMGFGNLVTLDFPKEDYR

[6] = biological target: Mitogen-activated protein kinase 10 (Homo sapiens) (UniProt P53779); experiment: Inhibition of human recombinant JNK3 at 15 nM in presence of ATP by radiometric assay relative to control
[7] = biological target: Serine/threonine-protein kinase SIK3 (Homo sapiens) (UniProt Q9Y2K2); experiment: Inhibition of human recombinant QSK at 15 nM in presence of ATP by radiometric assay relative to control
[8] = biological target: Ribosomal protein S6 kinase alpha-4 (Homo sapiens) (UniProt O75676); experiment: Inhibition of human recombinant MSK2 at 15 nM in presence of ATP by radiometric assay relative to control
[9] = biological target: Serine/threonine-protein kinase SIK3 (Homo sapiens) (UniProt Q9Y2K2); experiment: Inhibition of human recombinant QSK at 40 nM related to control ULK1
[10] = biological target: Macrophage colony-stimulating factor 1 receptor (Homo sapiens) (UniProt P07333); experiment: Inhibition of human recombinant FMS at 40 nM related to control ULK1
[11] = biological target: Cell division cycle 7-related protein kinase (Homo sapiens) (UniProt O00311); experiment: Inhibition of human recombinant CDC7 at 40 nM in presence of ATP by radiometric assay relative to control
Cell division cycle 7-related protein kinase (Homo sapiens), sequence (O00311 whole entry, looked up): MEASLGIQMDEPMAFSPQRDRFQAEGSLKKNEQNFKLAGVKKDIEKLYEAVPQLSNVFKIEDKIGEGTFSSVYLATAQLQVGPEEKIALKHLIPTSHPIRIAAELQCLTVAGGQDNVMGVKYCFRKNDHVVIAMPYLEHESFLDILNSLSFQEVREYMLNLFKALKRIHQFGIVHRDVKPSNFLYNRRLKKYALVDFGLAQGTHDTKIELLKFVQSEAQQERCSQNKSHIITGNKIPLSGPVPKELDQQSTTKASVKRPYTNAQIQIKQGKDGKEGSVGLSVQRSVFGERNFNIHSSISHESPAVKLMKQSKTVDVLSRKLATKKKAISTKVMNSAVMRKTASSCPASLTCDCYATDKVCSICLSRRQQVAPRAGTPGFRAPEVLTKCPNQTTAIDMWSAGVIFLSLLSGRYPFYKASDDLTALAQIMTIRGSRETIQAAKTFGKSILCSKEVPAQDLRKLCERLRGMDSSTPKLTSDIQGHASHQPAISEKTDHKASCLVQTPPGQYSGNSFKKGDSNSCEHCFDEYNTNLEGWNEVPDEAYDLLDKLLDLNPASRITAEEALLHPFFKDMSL

Serine/threonine-protein kinase SIK3 (Homo sapiens), sequence (Q9Y2K2 whole entry, looked up): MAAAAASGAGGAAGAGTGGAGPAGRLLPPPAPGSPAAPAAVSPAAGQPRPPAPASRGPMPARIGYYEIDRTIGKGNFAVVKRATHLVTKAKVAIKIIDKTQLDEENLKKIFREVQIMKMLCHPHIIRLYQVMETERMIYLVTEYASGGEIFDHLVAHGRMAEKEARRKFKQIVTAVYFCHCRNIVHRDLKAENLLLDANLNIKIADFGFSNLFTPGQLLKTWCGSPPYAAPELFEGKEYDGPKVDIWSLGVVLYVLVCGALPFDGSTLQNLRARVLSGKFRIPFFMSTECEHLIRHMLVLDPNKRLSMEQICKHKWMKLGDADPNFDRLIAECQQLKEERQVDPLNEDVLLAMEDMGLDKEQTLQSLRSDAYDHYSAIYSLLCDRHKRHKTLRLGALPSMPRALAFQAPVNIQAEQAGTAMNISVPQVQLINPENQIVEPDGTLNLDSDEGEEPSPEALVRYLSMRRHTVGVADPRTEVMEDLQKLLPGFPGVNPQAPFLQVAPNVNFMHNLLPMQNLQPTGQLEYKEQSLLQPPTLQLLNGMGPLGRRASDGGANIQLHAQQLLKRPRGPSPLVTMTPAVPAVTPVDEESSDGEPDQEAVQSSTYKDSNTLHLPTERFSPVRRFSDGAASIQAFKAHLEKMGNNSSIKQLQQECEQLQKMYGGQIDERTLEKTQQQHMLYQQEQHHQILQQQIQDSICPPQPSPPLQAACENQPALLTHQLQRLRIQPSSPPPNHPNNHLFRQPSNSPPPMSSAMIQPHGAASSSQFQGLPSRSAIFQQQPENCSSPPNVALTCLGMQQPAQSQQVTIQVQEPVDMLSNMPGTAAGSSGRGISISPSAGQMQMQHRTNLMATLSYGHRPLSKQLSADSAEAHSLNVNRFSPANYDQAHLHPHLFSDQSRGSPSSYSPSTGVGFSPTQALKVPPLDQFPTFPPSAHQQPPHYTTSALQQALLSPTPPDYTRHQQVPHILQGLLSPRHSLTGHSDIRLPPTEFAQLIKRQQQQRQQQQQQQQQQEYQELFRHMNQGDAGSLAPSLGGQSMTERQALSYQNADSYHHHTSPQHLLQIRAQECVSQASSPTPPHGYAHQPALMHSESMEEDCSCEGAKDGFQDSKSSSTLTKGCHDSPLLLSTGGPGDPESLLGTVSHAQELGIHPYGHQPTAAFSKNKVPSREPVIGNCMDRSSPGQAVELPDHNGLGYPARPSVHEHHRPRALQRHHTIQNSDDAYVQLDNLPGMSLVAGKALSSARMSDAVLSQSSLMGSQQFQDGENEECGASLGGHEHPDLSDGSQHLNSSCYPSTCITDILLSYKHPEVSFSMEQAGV
Ribosomal protein S6 kinase alpha-4 (Homo sapiens), sequence (O75676 whole entry, looked up): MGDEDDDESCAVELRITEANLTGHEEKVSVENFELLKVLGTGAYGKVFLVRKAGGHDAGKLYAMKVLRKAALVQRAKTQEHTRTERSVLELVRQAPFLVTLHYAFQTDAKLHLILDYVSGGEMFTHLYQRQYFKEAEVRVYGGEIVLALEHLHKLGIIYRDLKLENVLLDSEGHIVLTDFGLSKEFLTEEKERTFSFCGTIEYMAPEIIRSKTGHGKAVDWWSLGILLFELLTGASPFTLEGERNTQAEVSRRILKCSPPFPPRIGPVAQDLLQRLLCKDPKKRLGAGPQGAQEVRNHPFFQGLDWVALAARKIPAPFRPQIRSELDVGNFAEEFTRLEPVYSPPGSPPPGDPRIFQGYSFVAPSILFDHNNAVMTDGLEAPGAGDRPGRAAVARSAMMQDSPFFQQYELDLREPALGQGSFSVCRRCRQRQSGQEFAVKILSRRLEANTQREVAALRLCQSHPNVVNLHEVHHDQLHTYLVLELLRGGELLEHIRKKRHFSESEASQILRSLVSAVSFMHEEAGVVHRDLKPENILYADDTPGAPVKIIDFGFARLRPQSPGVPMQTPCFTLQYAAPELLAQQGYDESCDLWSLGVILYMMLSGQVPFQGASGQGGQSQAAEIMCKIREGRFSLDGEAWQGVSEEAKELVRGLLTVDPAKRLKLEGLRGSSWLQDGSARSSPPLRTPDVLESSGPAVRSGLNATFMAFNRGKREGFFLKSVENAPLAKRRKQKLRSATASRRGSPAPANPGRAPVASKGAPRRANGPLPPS
Rho-associated protein kinase 1 (Homo sapiens), sequence (Q13464 2-1354 limits assumed): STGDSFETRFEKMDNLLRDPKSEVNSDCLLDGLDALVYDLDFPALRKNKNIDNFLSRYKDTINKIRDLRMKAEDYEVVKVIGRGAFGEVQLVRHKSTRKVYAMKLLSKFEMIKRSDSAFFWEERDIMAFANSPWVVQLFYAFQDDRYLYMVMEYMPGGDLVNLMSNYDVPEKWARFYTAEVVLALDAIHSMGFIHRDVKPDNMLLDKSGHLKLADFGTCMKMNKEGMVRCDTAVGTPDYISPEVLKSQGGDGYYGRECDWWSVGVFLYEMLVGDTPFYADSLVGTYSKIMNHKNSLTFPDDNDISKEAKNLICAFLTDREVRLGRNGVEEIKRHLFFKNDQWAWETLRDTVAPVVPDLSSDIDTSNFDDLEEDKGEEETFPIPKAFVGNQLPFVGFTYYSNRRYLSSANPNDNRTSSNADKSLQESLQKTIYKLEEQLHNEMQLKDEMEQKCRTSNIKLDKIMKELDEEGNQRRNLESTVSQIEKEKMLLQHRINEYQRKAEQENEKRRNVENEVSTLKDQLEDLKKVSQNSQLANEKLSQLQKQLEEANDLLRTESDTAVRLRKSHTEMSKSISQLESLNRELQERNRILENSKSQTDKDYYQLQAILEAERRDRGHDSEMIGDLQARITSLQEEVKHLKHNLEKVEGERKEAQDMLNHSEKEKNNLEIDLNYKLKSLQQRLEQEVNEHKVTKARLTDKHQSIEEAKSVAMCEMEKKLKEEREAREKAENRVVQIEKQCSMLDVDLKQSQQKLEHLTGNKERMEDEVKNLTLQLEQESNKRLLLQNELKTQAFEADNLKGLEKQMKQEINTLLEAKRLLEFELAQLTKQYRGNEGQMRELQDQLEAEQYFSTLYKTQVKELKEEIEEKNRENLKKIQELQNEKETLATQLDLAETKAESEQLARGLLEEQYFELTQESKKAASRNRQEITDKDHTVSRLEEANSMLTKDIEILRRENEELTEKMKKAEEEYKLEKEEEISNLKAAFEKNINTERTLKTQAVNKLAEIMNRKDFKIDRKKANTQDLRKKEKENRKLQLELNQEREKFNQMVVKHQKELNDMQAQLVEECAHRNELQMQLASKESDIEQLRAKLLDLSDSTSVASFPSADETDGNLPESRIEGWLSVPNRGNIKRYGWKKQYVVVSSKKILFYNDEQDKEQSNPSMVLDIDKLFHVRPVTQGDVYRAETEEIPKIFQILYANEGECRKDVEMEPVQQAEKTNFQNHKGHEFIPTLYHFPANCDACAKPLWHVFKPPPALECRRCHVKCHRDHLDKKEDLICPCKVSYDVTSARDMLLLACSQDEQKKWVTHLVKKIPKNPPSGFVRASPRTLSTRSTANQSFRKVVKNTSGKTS
Mitogen-activated protein kinase 10 (Homo sapiens), sequence (P53779 whole entry): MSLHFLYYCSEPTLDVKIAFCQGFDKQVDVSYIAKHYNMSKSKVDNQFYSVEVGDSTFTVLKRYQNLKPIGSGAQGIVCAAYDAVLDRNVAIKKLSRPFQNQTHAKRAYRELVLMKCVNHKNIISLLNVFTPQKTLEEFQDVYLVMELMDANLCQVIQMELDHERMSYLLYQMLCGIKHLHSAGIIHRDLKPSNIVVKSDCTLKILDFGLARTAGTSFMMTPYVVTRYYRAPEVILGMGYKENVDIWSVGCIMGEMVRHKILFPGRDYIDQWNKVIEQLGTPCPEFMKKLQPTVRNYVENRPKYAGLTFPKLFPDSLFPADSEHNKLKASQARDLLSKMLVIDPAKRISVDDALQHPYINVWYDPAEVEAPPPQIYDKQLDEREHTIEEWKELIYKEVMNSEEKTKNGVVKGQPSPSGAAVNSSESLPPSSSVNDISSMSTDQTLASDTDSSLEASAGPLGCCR

Work on CNC(=O)c1ccccc1Oc1nc(Nc2cc(OC)c(OC)c(OC)c2)ncc1Br yielded an inhibition [1] of 3%, a fold change (FC) [2] of 0.26 and an inhibition [3] of 5%.

CC(C)[C@H](NC(=O)c1cc(-c2cnn3cc(-c4ccc(OCCN5CCCCC5)cc4)cnc23)cs1)C(F)(F)F showed a fold change (FC) [4] of 0.09, a fold change (FC) [5] of 0.01 and an inhibition [6] of 7%. For the same compound, the inhibition [7] was 86% and the inhibition [8] was 0%.

In the case of O=C(N[C@@H](C1CC1)C(F)(F)F)c1cc(-c2cnn3cc(-c4ccc(F)cc4)cnc23)cs1, the fold change (FC) [9] is reported as 0.81, the fold change (FC) [10] is reported as 0.01 and the inhibition [11] is reported as 39%.
